Experiments:
[1] = tested on: Magnaporthe grisea; assay: whole plant or invertebrate; type: in vivo; conditions: 250 ppm drug solution sprayed on test plant
[2] = tested on: Alternaia brassicicola; assay: Test Example C: Alternaria sooty spot on cabbage; type: in vivo; conditions: 250 ppm drug solution sprayed on test plant
Text: Seeds of a test plant (cabbage variety: Shikidori) were planted and cultivated until the cotyledons extended.
<Control Value> Control value=100{1−(n/3)}

[3] = tested on: Puccinia recondita; assay: Test Example E: Brown rust on wheat; type: in vivo; conditions: 250 ppm drug solution sprayed on test plant
[4] = tested on: Phytophthora infestans; assay: whole plant or invertebrate; type: in vivo; conditions: 250 ppm drug solution sprayed on test plant
[5] = tested on: Botrytis cinerea; assay: Test Example B: Gray mold on tomato; conditions: 250 ppm drug solution sprayed on test plant
[6] = tested on: Plasmopara viticola; assay: Test Example G: Downy mildew on vine; conditions: 250 ppm drug solution sprayed (2.5 ml/pot), grape Neomuscat, 7 to 10 days after inoculation
[7] = tested on: Colletotrichum orbiculare; assay: Test Example H: Anthracnose on cucumber; conditions: 250 ppm drug solution sprayed (2.5 ml/pot), cucumber Sagami Hanjiro, 6 to 10 days after inoculation
[8] = tested on: Blumeria graminis f. sp. hordei; assay: Test Example D: Powdery mildew on barley; conditions: 250 ppm drug solution sprayed on test plant

SMILES	Test A control value [1]	Test C control value [2]	Test E control value [3]	Test F control value [4]	Test B control value [5]	Test G control value [6]	Test H control value [7]	Test D control value [8]
CCC1=C(c2c(F)cc(F)cc2F)N(CC)C(=O)CC1 [compound 373]	L (50% or less control value)	H (more than 50% control value)	L (50% or less control value)	L (50% or less control value)	L (50% or less control value)	L (50% or less control value)	H (more than 50% control value)	L (50% or less control value)
CCc1cc(Cl)c(=O)n(C)c1-c1ccc(OC)cc1C [compound 374]	L (50% or less control value)	H (more than 50% control value)	H (more than 50% control value)	L (50% or less control value)	H (more than 50% control value)	L (50% or less control value)	L (50% or less control value)	H (more than 50% control value)
CCc1cc(Br)c(=O)n(C)c1-c1ccc(OC)cc1C [compound 375]	L (50% or less control value)	H (more than 50% control value)	H (more than 50% control value)	H (more than 50% control value)	H (more than 50% control value)	H (more than 50% control value)	L (50% or less control value)	H (more than 50% control value)
CCCc1cc(Cl)c(=O)n(CC)c1-c1ccc(OC)cc1Br [compound 376]	H (more than 50% control value)	H (more than 50% control value)	H (more than 50% control value)	H (more than 50% control value)	H (more than 50% control value)	H (more than 50% control value)	H (more than 50% control value)	H (more than 50% control value)
CCc1ccc(=O)n(CC)c1-c1c(F)cc(F)cc1F [compound 377]	L (50% or less control value)	L (50% or less control value)	L (50% or less control value)	L (50% or less control value)	L (50% or less control value)	L (50% or less control value)	H (more than 50% control value)	H (more than 50% control value)
CCCc1cc(Cl)c(=O)n(CC)c1-c1c(F)cc(F)cc1F [compound 378]	H (more than 50% control value)	H (more than 50% control value)	H (more than 50% control value)	L (50% or less control value)	H (more than 50% control value)	L (50% or less control value)	H (more than 50% control value)	H (more than 50% control value)
CCn1c(-c2c(F)cc(F)cc2F)c(C)cc(I)c1=O [compound 379]	L (50% or less control value)	H (more than 50% control value)	H (more than 50% control value)	L (50% or less control value)	H (more than 50% control value)	L (50% or less control value)	H (more than 50% control value)	H (more than 50% control value)
CCn1c(-c2c(F)cc(OC)cc2F)c(C)cc(I)c1=O [compound 380]	H (more than 50% control value)	H (more than 50% control value)	H (more than 50% control value)	H (more than 50% control value)	H (more than 50% control value)	L (50% or less control value)	H (more than 50% control value)	H (more than 50% control value)
CCn1c(-c2c(F)cc(F)cc2F)c(C(C)(O)C(C)C)cc(Br)c1=O (stereo not shown) [compound 381]	H (more than 50% control value)	H (more than 50% control value)	H (more than 50% control value)	H (more than 50% control value)	H (more than 50% control value)	H (more than 50% control value)	H (more than 50% control value)	H (more than 50% control value)
CCCc1cc(Br)c(=O)n(CC)c1-c1ccc(OC)cc1Br [compound 382]	H (more than 50% control value)	H (more than 50% control value)	H (more than 50% control value)	H (more than 50% control value)	H (more than 50% control value)	H (more than 50% control value)	H (more than 50% control value)	L (50% or less control value)
CCCc1ccc(=O)n(CC)c1-c1c(F)cc(OC)cc1F [compound 383]	H (more than 50% control value)	H (more than 50% control value)	H (more than 50% control value)	L (50% or less control value)	H (more than 50% control value)	H (more than 50% control value)	H (more than 50% control value)	H (more than 50% control value)
